Results taken from PubChem BioAssay (NCI).
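Results reflect a 48-hour exposure of cells in 96-well plates to compound at five concentrations. Definition used: TGI = concentration required for complete inhibition of growth.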

Experiments:
Assay in all cases: inhibition of tumour cell growth, NCI panel, 48 h
[1] = system: IGROV1 ovarian
[2] = system: MALME-3M melanoma
[3] = system: M14 melanoma
[4] = system: NCI-H460 lung
[5] = system: MDA-MB-435
[6] = system: 786-0 renal
[7] = system: SNB-19 CNS
[8] = system: COLO 205 colon
[9] = system: MDA-MB-231 breast
[10] = system: UACC-257 melanoma
[11] = system: NCI/ADR-RES ovarian
[12] = system: UO-31 renal
[13] = system: SK-OV-3 ovarian
[14] = system: HOP-62 NSCLC
[15] = system: CCRF-CEM leukemia
[16] = system: KM12 colon
[17] = system: SNB-75 CNS
[18] = system: SF-295 CNS
[19] = system: DU-145 prostate
[20] = system: OVCAR-8 ovarian
[21] = system: U251 CNS
[22] = system: HT29 colon
[23] = system: OVCAR-5 ovarian
[24] = system: RXF 393 renal
[25] = system: SW-620 colon
[26] = system: MDA-N
[27] = system: CAKI-1 renal
[28] = system: HS 578T breast
[29] = system: OVCAR-3 ovarian
[30] = system: HCT-116 colon
[31] = system: RPMI-8226 leukemia
[32] = system: BT-549 breast
[33] = system: A549 NSCLC
[34] = system: HL-60(TB) leukemia
[35] = system: ACHN renal
[36] = system: SK-MEL-5 melanoma
[37] = system: NCI-H226 lung
[38] = system: SN12C renal
[39] = system: UACC-62 melanoma
[40] = system: SK-MEL-28 melanoma
[41] = system: OVCAR-4 ovarian
[42] = system: A498 renal
[43] = system: NCI-H23 lung
[44] = system: HCT-15 colon
[45] = system: PC-3 prostate
[46] = system: EKVX NSCLC
[47] = system: SF-268 CNS
[48] = system: K-562 leukemia
[49] = system: TK-10 renal
[50] = system: SK-MEL-2 melanoma
[51] = system: NCI-H522 lung
[52] = system: MOLT-4 leukemia
[53] = system: HCC-2998 colon
[54] = system: T-47D breast
[55] = system: MCF7 breast
[56] = system: SF-539 CNS
[57] = system: HOP-92 NSCLC
[58] = system: LOX IMVI melanoma

`CCCN=C1CCN(Cc2ccccc2)c2ccccc2N1` showed a TGI [1] of 19.5 µM, a TGI [2] of 22.1 µM and a TGI [3] of 31.3 µM. It also gave a TGI [4] of 36.3 µM, a TGI [5] of 45 µM and a TGI [6] of over 100 µM. For the same compound, the TGI [7] was over 100 µM, the TGI [8] was 22.9 µM and the TGI [9] was 59.9 µM. For the same compound, the TGI [10] was 29.2 µM, the TGI [11] was 34.4 µM and the TGI [12] was over 100 µM. It also gave a TGI [13] of over 100 µM, a TGI [14] of over 100 µM and a TGI [15] of over 100 µM. It also gave a TGI [16] of 64.6 µM, a TGI [17] of 27.5 µM and a TGI [18] of 95.3 µM. For the same compound, the TGI [19] was over 100 µM, the TGI [20] was 32.6 µM and the TGI [21] was 43.6 µM. The TGI [22] was 90.1 µM, the TGI [23] was over 100 µM and the TGI [24] was 29.6 µM. For the same compound, the TGI [25] was over 100 µM, the TGI [26] was over 100 µM and the TGI [27] was 63.9 µM. The TGI [28] was 36.2 µM, the TGI [29] was over 100 µM and the TGI [30] was over 100 µM. It also gave a TGI [31] of 28.9 µM, a TGI [32] of 34.3 µM and a TGI [33] of over 100 µM. For the same compound, the TGI [34] was 37.3 µM, the TGI [35] was 94.1 µM and the TGI [36] was 28.2 µM. It also gave a TGI [37] of 96.1 µM, a TGI [38] of over 100 µM and a TGI [39] of 26.2 µM. For the same compound, the TGI [40] was 29.3 µM, the TGI [41] was over 100 µM and the TGI [42] was 25.4 µM. The TGI [43] was 41.5 µM, the TGI [44] was 51.7 µM and the TGI [45] was 59.9 µM. For the same compound, the TGI [46] was over 100 µM, the TGI [47] was 36.8 µM and the TGI [48] was 19.4 µM. It also gave a TGI [49] of over 100 µM, a TGI [50] of 31.6 µM and a TGI [51] of 27.9 µM. For the same compound, the TGI [52] was 34.1 µM.
`CC1=CC2C(O1)C1C(=O)C=CC(=O)C1=CC2[N+](=O)[O-]` (centres undefined) was tested, and the TGI [1] was 44.7 µM, the TGI [3] was 29.4 µM and the TGI [4] was 36.4 µM. For the same compound, the TGI [5] was 26.4 µM, the TGI [6] was 27.6 µM and the TGI [7] was over 72.4 µM. The TGI [8] was 21.2 µM, the TGI [9] was 38.9 µM and the TGI [10] was 33.7 µM. For the same compound, the TGI [11] was over 77.9 µM, the TGI [12] was 10.4 µM and the TGI [13] was over 100 µM. For the same compound, the TGI [14] was 48.7 µM, the TGI [15] was over 23.7 µM and the TGI [16] was over 55.9 µM. It also gave a TGI [17] of over 68.1 µM, a TGI [53] of over 59.7 µM and a TGI [18] of 34.5 µM. It also gave a TGI [19] of over 55.9 µM, a TGI [20] of 60.2 µM and a TGI [21] of 36.3 µM. It also gave a TGI [22] of 45.7 µM, a TGI [23] of 63.3 µM and a TGI [24] of 28.2 µM. It also gave a TGI [54] of over 29.2 µM, a TGI [25] of over 24.3 µM and a TGI [26] of 65.8 µM. For the same compound, the TGI [27] was 9.33 µM, the TGI [28] was over 58 µM and the TGI [29] was 30.7 µM. The TGI [30] was 31.8 µM, the TGI [31] was over 100 µM and the TGI [32] was 29.6 µM. For the same compound, the TGI [33] was 43.5 µM, the TGI [34] was over 22.5 µM and the TGI [55] was 14.3 µM. It also gave a TGI [35] of 12.8 µM, a TGI [56] of 96.5 µM and a TGI [36] of 38.2 µM. For the same compound, the TGI [37] was over 100 µM, the TGI [38] was 39.6 µM and the TGI [39] was 36.2 µM. For the same compound, the TGI [40] was 68.4 µM, the TGI [41] was 31.6 µM and the TGI [42] was 40.6 µM. For the same compound, the TGI [43] was 48.3 µM, the TGI [44] was 39.6 µM and the TGI [45] was 37.9 µM. It also gave a TGI [46] of 33.8 µM, a TGI [57] of 6.2 µM and a TGI [47] of 29.3 µM. For the same compound, the TGI [58] was over 52.3 µM, the TGI [48] was over 100 µM and the TGI [49] was 30.6 µM. The TGI [50] was 57.2 µM and the TGI [52] was over 24.3 µM.
`COC(=O)[C@H](Cc1c[nH]c2ccccc12)NP(=O)(O)OCC1C=CC(n2cc(C)c(=O)[nH]c2=O)O1` (some centres undefined) showed a TGI [1] of over 100 µM, a TGI [5] of over 100 µM and a TGI [6] of over 100 µM. It also gave a TGI [7] of over 100 µM, a TGI [8] of over 100 µM and a TGI [9] of over 100 µM. The TGI [11] was over 100 µM, the TGI [14] was over 100 µM and the TGI [15] was over 100 µM. It also gave a TGI [16] of over 100 µM, a TGI [17] of over 100 µM and a TGI [53] of over 100 µM. The TGI [19] was over 100 µM, the TGI [20] was over 100 µM and the TGI [21] was over 100 µM. It also gave a TGI [22] of over 100 µM, a TGI [54] of over 100 µM and a TGI [25] of over 100 µM. The TGI [26] was over 100 µM, the TGI [27] was over 100 µM and the TGI [28] was over 100 µM. It also gave a TGI [29] of over 100 µM, a TGI [30] of over 100 µM and a TGI [31] of over 100 µM. For the same compound, the TGI [32] was over 100 µM, the TGI [34] was over 100 µM and the TGI [36] was over 100 µM. It also gave a TGI [37] of over 100 µM, a TGI [38] of over 100 µM and a TGI [39] of over 100 µM. For the same compound, the TGI [40] was over 100 µM, the TGI [41] was over 100 µM and the TGI [42] was over 100 µM. It also gave a TGI [43] of over 100 µM, a TGI [44] of over 100 µM and a TGI [45] of over 100 µM. It also gave a TGI [46] of over 100 µM, a TGI [57] of over 100 µM and a TGI [47] of over 100 µM. For the same compound, the TGI [58] was over 100 µM, the TGI [48] was over 100 µM and the TGI [50] was over 100 µM. The TGI [52] was over 100 µM.
For `Cc1nc(C(N)=S)sc1/C(CC(=O)C(=O)Nc1cccc2ccc(O)cc12)=N\NC(=O)c1ccncc1`, the TGI [1] was over 100 µM, the TGI [3] was over 100 µM and the TGI [4] was 64.6 µM. The TGI [5] was over 100 µM, the TGI [6] was over 100 µM and the TGI [7] was over 100 µM. It also gave a TGI [8] of over 100 µM, a TGI [9] of over 100 µM and a TGI [10] of over 100 µM. It also gave a TGI [11] of over 100 µM, a TGI [12] of over 100 µM and a TGI [13] of over 100 µM. The TGI [14] was over 100 µM, the TGI [15] was over 100 µM and the TGI [16] was over 100 µM. It also gave a TGI [17] of over 100 µM, a TGI [53] of over 100 µM and a TGI [18] of over 100 µM. It also gave a TGI [19] of over 100 µM, a TGI [20] of over 100 µM and a TGI [21] of over 100 µM. It also gave a TGI [22] of over 100 µM, a TGI [23] of over 100 µM and a TGI [24] of over 100 µM. For the same compound, the TGI [25] was over 100 µM, the TGI [26] was over 100 µM and the TGI [27] was over 100 µM. For the same compound, the TGI [28] was over 100 µM, the TGI [29] was over 100 µM and the TGI [30] was over 100 µM. The TGI [32] was over 100 µM, the TGI [33] was over 100 µM and the TGI [34] was over 100 µM. The TGI [55] was over 100 µM, the TGI [35] was over 100 µM and the TGI [56] was over 100 µM. For the same compound, the TGI [36] was over 100 µM, the TGI [37] was over 100 µM and the TGI [38] was over 100 µM. It also gave a TGI [39] of over 100 µM, a TGI [40] of over 100 µM and a TGI [41] of over 100 µM. The TGI [43] was over 100 µM, the TGI [44] was over 100 µM and the TGI [45] was over 100 µM. The TGI [46] was over 100 µM, the TGI [57] was over 100 µM and the TGI [47] was over 100 µM. For the same compound, the TGI [58] was over 100 µM, the TGI [49] was over 100 µM and the TGI [50] was over 100 µM. For the same compound, the TGI [51] was over 100 µM and the TGI [52] was 74.3 µM.
